Measured values published in patent US9610274B2, “Methods for treating bipolar disorder” (priority 2010, dated 2017).

What was measured:
Assay type in all cases: in vivo
[1] = system: wild-type mice; assay: Spontaneous activity in the open field, wild-type mice; conditions: WT mice; amphetamine 2 mg/kg SC; relative to vehicle
Method: Male and female wild-type and homozygous mutant dopamine transporter KO mice (n˜10 mice/genotype/agent; produced by in vivo homologous recombination and bred at Duke University Medical Center, Durham, N.C.) were tested for spontaneous activity in the open field following a single injection of the vehicle or compound. Mice were placed into the open field for 30 min and administered SC the vehicle (sterile water), 2 mg/kg amphetamine, or three concentrations of the test compound (10, 30, 100 mg/kg). All drugs were given in a volume of 5 mL/kg. Animals were returned to the open field for an additional 90 min. Spontaneous activity was evaluated in an automated Omnitech Digiscan apparatus (Accuscan Instruments, Columbus, Ohio). […] Horizontal activity or locomotion was measured in terms of the total distance covered in cm, vertical activity or rearing was expressed in terms of the total numbers of vertical beam breaks, and stereotypy was quantified in terms of repetitive breaks of a given beam or beams with intervals of less than 1 sec. […] Data were analyzed by the Statistical Package for Social Sciences programs (version 11.0 for Windows; SPSS Science, Chicago, Ill.). The results for each dependent variable were analyzed by repeated analyses of variance (RMANOVA) for within subjects effects (group differences over time) and between-subjects effects (tests of main effects and interactions). […]

[2] = system: homozygous mutant dopamine transporter knockout (KO) mice; assay: Spontaneous activity in the open field, dopamine transporter KO mice; conditions: single SC injection, test compound 10, 30, 100 mg/kg, amphetamine 2 mg/kg, 90 min post-injection, relative to vehicle
Method: Male and female wild-type and homozygous mutant dopamine transporter KO mice (n˜10 mice/genotype/agent; produced by in vivo homologous recombination and bred at Duke University Medical Center, Durham, N.C.) were tested for spontaneous activity in the open field following a single injection of the vehicle or compound. […] All drugs were given in a volume of 5 mL/kg. Animals were returned to the open field for an additional 90 min. Spontaneous activity was evaluated in an automated Omnitech Digiscan apparatus (Accuscan Instruments, Columbus, Ohio). Activity was summated at 5 min intervals over the 2 h period of testing. Horizontal activity or locomotion was measured in terms of the total distance covered in cm, vertical activity or rearing was expressed in terms of the total numbers of vertical beam breaks, and stereotypy was quantified in terms of repetitive breaks of a given beam or beams with intervals of less than 1 sec. For the analyses, 10 WT and 10 KO mice were run in each of the treatment groups with approximately equal numbers of males and females assigned to each group. Data were analyzed by the Statistical Package for Social Sciences programs (version 11.0 for Windows; SPSS Science, Chicago, Ill.). The results for each dependent variable were analyzed by repeated analyses of variance (RMANOVA) for within subjects effects (group differences over time) and between-subjects effects (tests of main effects and interactions). Bonferroni corrected pair-wise comparisons were used as the post-hoc tests. A p <0.05 was considered significant.

[3] = system: isolated mice; assay: Isolation-induced fighting in mice; conditions: Mus musculus
Method: Male CD-1 mice (15-20 g) were utilized in this experiment. The test compound (15, 22 and 30 mg/kg) was dissolved in physiological saline (0.9%) and administered orally (PO) in a volume of 1 mL/100 g body weight.
Mice were isolated for up to 8 weeks in individual solid walled wire cages (24×20×17 cm). The animals were not disturbed except to replenish food. Aggression was tested by placing an intruder mouse into the home cage of the resident animal. Aggression was characterized by an attack on the “intruder” during a three minute period. […] Only those resident mice displaying fighting behavior were selected. […] ED50 values were calculated from the percent inhibition of fighting in computer program based on probit analysis.

[4] = system: adult human subjects with moderate or severe major depression without psychotic features; assay: Randomized double-blind placebo- and active-controlled 6-week study in major depression; conditions: paroxetine 20 mg/day; for MADRS response rate / MADRS remission rate: Week 6; for MADRS response rate: >50% improvement in MADRS total score; for MADRS remission rate: MADRS total score less than 9
Method: The primary objective of this study was to determine the efficacy of 2 target doses of test compound (200 and 400 mg/day) in comparison with placebo during 6 weeks of treatment in adult human subjects with moderate or severe major depression without psychotic features. An active comparator (paroxetine) was included to assist in distinguishing a negative study from a failed study. In addition, an exit interview was intended to gather information on unexpected benefits of the test compound in order to refine the clinical development program. […] In addition, positive effects of the test compound on ratings of physical energy/fitness, reduction in sadness or depression and mental energy or motivation.
This was a randomized, double-blind, parallel-group, active, and placebo-controlled, multicenter study conducted in the U.S. (23 centers) and Canada (4 centers). There were 2 phases: a pretreatment phase (screening/washout and a baseline visit) and a 6-week, double-blind treatment phase. Paroxetine, a positive control, was included to evaluate assay sensitivity. After washout (if needed) of prohibited substances, subjects were randomly assigned (1:1:1:1) to receive the test compound titrated to a target dose of 200 mg/day or 400 mg/day, matching placebo, or a fixed dose (20 mg/day) of paroxetine. Study drug was given twice daily for 6 weeks. Efficacy and safety were assessed weekly during the double-blind phase. Subjects completing the study underwent an Exit Interview (“Your Health and Well-Being”) and completed an Assessment of Benefits of Clinical-trial Drug-treatment (ABCD) questionnaire (U.S. sites only).

[5] = ITT (LOCF), change from baseline at Week 6
[6] = Per-Protocol (LOCF), change from baseline at Week 6

Structure (SMILES): CC(N)Cc1ccccc1 (stereo not drawn) [Amphetamine, amphetamine, reference compound]
- spontaneous activity (locomotor, rearing and stereotypical activities) [1]: increased locomotor, rearing and stereotypical activities in WT mice
- spontaneous activity (locomotor, rearing and stereotypical activities) [2]: decreased them in KO animals

Structure (SMILES): CN(C)CCCN1c2ccccc2CCc2ccccc21 [Imipramine, imipramine, reference compound]
- inhibition at 15 mg/kg ([3]; 1 h, 15 mg/kg PO, 60 min after dosing): 20%
- inhibition at 30 mg/kg ([3]; 1 h, 30 mg/kg PO, 60 min after dosing): 50%
- ED50 ([3]; PO, inhibition of isolation-induced fighting, probit analysis, read-out: ED50 (mg/kg, PO) (confidence limits)): ~30 mg/kg

Structure (SMILES): Fc1ccc([C@@H]2CCNC[C@H]2COc2ccc3c(c2)OCO3)cc1 [Paroxetine, paroxetine, reference compound]
- MADRS response rate ([4]; ITT (LOCF)): 48%
- MADRS remission rate ([4]; ITT (LOCF)): 26%
- 3 Atypical items of HAM-D 31, mean result [4, 5]: −0.6
- CGI-S score, mean result [4, 5]: −1.5
- MADRS core mood subscale, mean result [4, 5]: −9.7
- MADRS sadness (Items 1 + 2), mean result [4, 5]: −3.9
- MADRS total score (primary), mean result [4, 5]: −14.1
- superiority to placebo on the primary endpoint (change from baseline at Week 6 in MADRS total score) ([4]; ITT (LOCF), test compound 200 mg and 400 mg): statistically significant superiority to placebo
- MADRS response rate ([4]; Per-Protocol (LOCF)): 60%
- MADRS remission rate ([4]; Per-Protocol (LOCF)): 35%
- CGI-S score, mean result [4, 6]: −1.9
- MADRS total score, mean result [4, 6]: −17.1
- ABCD questionnaire items with statistically significant superiority to placebo ([4]; post hoc analyses, of 51 items, U.S. sites): 14 items
